Experimental data: ChEMBL document CHEMBL1129225, “Synthesis of 11,13-bridged progestational steroids” (1997)
Active and inactive are the calls of the source. The rule behind the calls is not given here.

Key:
Oryctolagus cuniculus = assay: In vivo activity using McPhail test after oral dose; assay type: functional
[1] = biological target: T1, Progesterone receptor (Homo sapiens) (UniProt P06401); assay: Relative binding affinity to progesterone receptor of MCF-7 cytosol; No competitive binding
T1 sequence (whole entry): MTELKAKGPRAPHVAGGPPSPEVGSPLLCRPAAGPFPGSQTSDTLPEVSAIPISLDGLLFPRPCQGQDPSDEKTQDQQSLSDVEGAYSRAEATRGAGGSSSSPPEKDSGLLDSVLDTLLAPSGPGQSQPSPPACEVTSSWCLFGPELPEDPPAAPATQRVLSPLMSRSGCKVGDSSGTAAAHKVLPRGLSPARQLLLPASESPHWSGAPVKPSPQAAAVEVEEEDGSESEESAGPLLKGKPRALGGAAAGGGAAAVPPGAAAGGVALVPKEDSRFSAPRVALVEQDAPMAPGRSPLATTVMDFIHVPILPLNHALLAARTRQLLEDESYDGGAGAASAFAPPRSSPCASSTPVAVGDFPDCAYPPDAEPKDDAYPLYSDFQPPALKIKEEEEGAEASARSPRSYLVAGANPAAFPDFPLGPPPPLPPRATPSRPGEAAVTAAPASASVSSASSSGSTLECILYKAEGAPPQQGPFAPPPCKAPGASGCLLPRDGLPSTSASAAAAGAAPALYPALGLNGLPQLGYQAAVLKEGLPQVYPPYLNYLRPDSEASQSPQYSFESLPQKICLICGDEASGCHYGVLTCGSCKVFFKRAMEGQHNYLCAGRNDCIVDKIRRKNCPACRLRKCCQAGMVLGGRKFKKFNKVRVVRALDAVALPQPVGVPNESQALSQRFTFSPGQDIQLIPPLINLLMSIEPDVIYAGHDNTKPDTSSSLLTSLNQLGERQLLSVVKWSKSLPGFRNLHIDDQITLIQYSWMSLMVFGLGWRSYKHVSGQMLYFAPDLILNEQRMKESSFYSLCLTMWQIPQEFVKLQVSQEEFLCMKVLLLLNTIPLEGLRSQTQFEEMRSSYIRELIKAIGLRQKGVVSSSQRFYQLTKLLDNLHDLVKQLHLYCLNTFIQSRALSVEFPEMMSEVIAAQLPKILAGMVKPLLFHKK

SMILES | ED2 (Oryctolagus cuniculus) [mg/kg] | relative binding affinity (RBA) [1]
C#C[C@]1(O)CC[C@H]2[C@@H]3CCC4=CC(=O)CC[C@@H]4[C@H]3CC[C@@]21C [NORETHINDRONE] | 0.5 | –
C#C[C@]1(O)CCC2C3CCC4=CC(=O)CCC4C3[C@H]3CC[C@]21C3 (stereo partly specified) | 0.032 | –
C#C[C@]1(O)CCC2C3CCC4=CC(=O)CCC4C3[C@@H]3C[C@@]21CO3 (stereo partly specified) | >4 | inactive
C#C[C@]1(O)CCC2C3CCC4=CC(=O)CCC4C3[C@@H](C)CC21C (stereo partly specified) | 0.015 | –
C#C[C@]1(O)CCC2C3CCC4=CC(=O)CCC4C3[C@H]3C=C[C@]21C3 (stereo partly specified) | >0.125 | –
